Measured values published in patent US9018208B2, “Heterocycles as potassium channel modulators” (Icagen Inc., priority 2007, dated 2015).
Like-named read-outs stand apart in the source and are kept apart here.

Key:
[1] = Metabolic stability in rats after oral administration (mass spectrometry); format: in vivo, rat; conditions: result in words
Source text: Metabolite 14% of parent for compound 65 and metabolite 35% of parent for compound 366 were observed.

[2] = system: SH-SY5Y M-currents (KCNQ2, KCNQ3 and KCNQ5); test: SH-SY5Y native cell line FLIPR assay (voltage-sensitive dye DiBAC); format: cell-based, mouse neuroblastoma, rat glioma hybrid cell line; conditions: SH-SY5Y native cell line, read-out: SH-SY5Y EC50
Procedure, shortened: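 Response is peak DiBAC fluorescence change, normalised to the maximum from a positive control agent, sampled every 30 s over 25 min. Before compound addition, SH-SY5Y cells differentiated with PGE1 plus isomethylbutylxanthine were dye-loaded for 1 h in EBSS with […] DiBAC.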

[3] = system: electroshock seizure, Male Wistar rats; test: In vivo rat assay for anti-convulsant activity (rat MES, electroshock seizure); conditions: for Rat MES activity: single dose screening, oral, typically 10 mg/kg, animals protected from hind limb extension; for ED50: Rattus norvegicus, po, rat MES dose-response
Description: Male Wistar rats were housed 4 per cage on a regular light/dark cycle (lights on 0600-1800) for one week prior to anti-convulsant testing. The apparatus used to induce electroshock seizure was obtained from Walhquist Instrument Co., Salt Lake City, Utah. The shock level was set at 150 mA and the duration at 0.2 seconds. A drop of 1% proparacaine solution was placed in each eye of a rat, the electrodes were placed over the eyes, and the shock was administered. Latency to hind limb extension was measured to the nearest 0.1 second.
The KCNQ opener was homogenized in either 0.5% carboxymethylcellulose in water or 0.5% methylcellulose in water) and administered orally through a steel 18-gauge rat gavage tube in a volume of 2 mL/kg of body weight. In the single dose screening assay, latency to seizure for the vehicle group and the KCNQ opener group were compared using t-test. Typically a dose of 10 mg/kg of the opener is used. However, openers can be run n a dose-response experiment where doses of 1, 3, 10 and 30 mg/Kg are used.
In the single dose screening assay, latency to seizure for the vehicle and the 10 mg/kg groups were compared using t-test. Latencies to seizure in the dose response studies were submitted to analysis of variance and all dose groups were compared to vehicle using Dunnett's method (JMP© ver 5.1, SAS). In all cases an effect was considered significant if p≦0.05.

[4] = system: tactile allodynia following L5 nerve ligation, Male Sprague-Dawley rats; test: In vivo rat assay for neuropathic pain (L5 spinal nerve ligation, Von Frey tactile allodynia); conditions: oral, Von Frey 50% paw withdrawal threshold after L5 ligation
Source text: A neuropathic pain condition is induced in rats using a nerve injury model similar to the method described by Kim and Chung (Kim, S. H. & Chung, J. M. (1992) Pain 50:355-363). Rats (Male Sprague-Dawley, Charles River, Wilmington, Mass.) weighing 200-300 grams were utilized. Food and water was available ad libitum except during testing) are anesthetized with halothane and the L5 spinal nerve is exposed, carefully isolated, and tightly ligated with 4.0 silk suture distal to the dorsal root ganglia. The wounds are sutured and the animals are allowed to recover in individual cages. To test the effect of a KCNQ opener on tactile allodynia following L5 nerve ligation, Von Frey tactile withdrawal thresholds are determined. Test animals are placed in a box separated by walls with a wire mesh floor allowing access to the plantar surface of the paw. […] Failure to lift the hind paw after 4 seconds is scored as a negative response and the next ascending hair is applied. […]
Baseline measurements of allodynia are performed immediately prior to subject selection and compound administration. […] Additional paw withdrawal thresholds are measured at various time intervals after compound administration. Examples 153 and 19 were evaluated in this assay.

[5] = system: carrageenan-induced thermal hyperalgesia, Sprague Dawley rats; test: In vivo rat model for inflammatory pain (carrageenan, thermal hyperalgesia); conditions: oral, carrageenan paw, thermal escape latency
Description: Compounds with anti-hyperalgesic activity will increase (or lengthen) the escape latency of the inflamed paw.
To induce a local inflammation, 50 μL of a 1% solution of λ-carrageenan in sterile water is injected subcutaneously into the plantar surface of the right hind paw of the rat (Sprague Dawley rats, sample size=8 per treatment group). The KCNQ openers typically at doses ranging from 1-100 mg/kg were homogenized in either 0.5% carboxymethylcellulose in water or 0.5% methylcellulose in water and administered orally through a steel 18-gauge rat gavage tube in a volume of 2 mL/kg of body weight 30 minutes prior to carrageenan injection. After carrageenan injection behavioral testing is conducted at the appropriate time following opener or vehicle administration (generally Tmax, the time of maximum plasma levels of the compound being tested). To assess the thermally evoked paw withdrawal response, a commercially available Hargreaves Box was used (UCSD Department of Anesthesiology, San Diego; La Jolla, Calif., stimulus intensity 5.25 amps). Rats were placed on a thin glass surface in individual chambers made of clear plastic. […] The time to withdrawal response is measured in seconds and assigned as the response latency. […]

EC50 ([2]; FLIPR assay, Table 1) | EC50 ([2]; FLIPR assay (Table 6)) | EC50 ([2]; FLIPR assay (Table 3)) | EC50 ([2]; FLIPR assay, Table 2) | SMILES | metabolism in rats [1] | Rat MES activity [3] | ED50 [4] | ED50 [3] | ED50 [5]
500 to 3000 nM | – | – | – | CC(C)(C)CC(=O)Nc1nc2ccc(C(F)(F)F)cn2c1C1CC1 [Compound 65, N-(3-cyclopropyl-6-(trifluoromethyl)imidazo[1,2-a]pyridin-2-yl)-3,3-dimethylbutanamide] | undergo metabolism at the terminal carbon of the t-butyl group | – | – | – | –
< 500 nM | – | – | – | CC(C)(C)CC(=O)Nc1nc2ccc(C(F)(F)F)cn2c1CC(C)(C)C [Compound 19, 3,3-dimethyl-N-(3-neopentyl-6-(trifluoromethyl)imidazo[1,2-a]pyridin-2-yl)butanamide] | – | +++ (+++ 7-8 animals protected) | 10 mg/kg | – | –
– | 500 to 3000 nM | – | – | CC(C)(CC(=O)Nc1nc2ccc(F)cn2c1-c1cc(C(F)(F)F)ccn1)C(F)(F)F [Compound 433, 4,4,4-trifluoro-N-(6-fluoro-3-(4-(trifluoromethyl)pyridin-2-yl)imidazo[1,2-a]pyridin-2-yl)-3,3-dimethylbutanamide] | little or no metabolism | – | – | 3.9 mg/kg | –
– | – | < 500 nM | – | CC(C)(C)CC(=O)Nc1nc2ccc(F)cn2c1-c1cc(C(F)(F)F)ccn1 [Compound 366, N-(6-fluoro-3-(4-(trifluoromethyl)pyridin-2-yl)imidazo[1,2-a]pyridin-2-yl)-3,3-dimethylbutanamide] | undergo metabolism at the terminal carbon of the t-butyl group | – | – | – | –
– | – | – | < 500 nM | CC(C)(C)CC(=O)Nc1nc2ccc(F)cn2c1-c1ccc(OC(F)(F)F)cc1 [Compound 153, N-(6-fluoro-3(4-(trifluoromethoxy)phenyl)imidazo[1,2-a]pyridin-2-yl)-3,3-dimethylbutanamide] | – | +++ (+++ 7-8 animals protected) | 1.9 mg/kg | 0.5 mg/kg | 0.5 to 1 mg/kg
– | < 500 nM | – | – | CC(C)(CC(=O)Nc1nc2ccc(C(F)(F)F)cn2c1C1CCC1)C(F)(F)F [Compound 431, N-(3-cyclobutyl-6-(trifluoromethyl)imidazo[1,2-a]pyridin-2-yl)-4,4,4-trifluoro-3,3-dimethylbutanamide] | little or no metabolism | +++ (+++ 7-8 animals protected) | – | 5.2 mg/kg | –
